Residues, ends and D or L forms follow the SMILES beside them.
Tests used:
[1] = S. intermedius 19930 viability in lytic peptide/lysozyme; conditions: Viability (%), lysozyme at ten times
[2] = test system: Erwinia caratovora subsp. carotova; assay: Plant pathogen LD50 in cecropin SB-37/lysozyme; format: cell-based; conditions: incubation at 30° C.
[3] = Viability by trypan blue exclusion, U937 cells; format: cell-based, human
Method: EL-4 lymphoma cells were suspended in RPMI 1640 at 5,000,000/ml with 500,000 cells per well. Various concentrations of cecropin SB-37 and Shiva 1 were added and the wells incubated at 37° C. in a 5% CO2 atmosphere for one hour. Viability was determined by microscopic observation for trypan blue exclusion.
This procedure was repeated with 100 μM cecropin SB-37 using non-adherent normal human lymphocytes, Daudi human Burkitt's lymphoma cells, KG-1 human leukemia cells, U937 human monocytic leukemia cells, and SP2 murine myeloma cells, and determining viability by the trypan blue exclusion method at 15, 30 and 60 minutes following addition of the peptide.

Question: For `CC[C@H](C)[C@H](NC(=O)CNC(=O)[C@H](CC(N)=O)NC(=O)[C@H](CCCNC(=N)N)NC(=O)[C@@H](NC(=O)[C@H](CC(N)=O)NC(=O)[C@H](CCCNC(=N)N)NC(=O)CNC(=O)[C@H](CCSC)NC(=O)[C@H](CCCCN)NC(=O)[C@H](CCC(=O)O)NC(=O)[C@@H](NC(=O)[C@H](CCCCN)NC(=O)[C@H](CCCCN)NC(=O)[C@H](Cc1ccccc1)NC(=O)[C@@H](NC(=O)[C@H](CCCCN)NC(=O)[C@H](Cc1c[nH]c2ccccc12)NC(=O)[C@H](CCCCN)NC(=O)[C@@H]1CCCN1C(=O)[C@@H](N)CCSC)C(C)C)[C@@H](C)CC)[C@@H](C)CC)C(=O)N[C@H](C(=O)N[C@@H](CCCCN)C(=O)N[C@@H](C)C(=O)NCC(=O)N1CCC[C@H]1C(=O)N[C@@H](C)C(=O)N[C@H](C(=O)N[C@@H](C)C(=O)N[C@H](C(=O)N[C@@H](CC(C)C)C(=O)NCC(=O)N[C@@H](CCC(=O)O)C(=O)N[C@@H](C)C(=O)N[C@@H](CCCCN)C(=O)N[C@@H](C)C(=O)N[C@@H](CC(C)C)C(=O)NCC(N)=O)C(C)C)[C@@H](C)CC)C(C)C` [Cecropin SB-37] (H-MPKWKVFKKIEKMGRNIRNGIVKAGPAIAVLGEAKALG-NH2), which viability at 0.01 µM ([1]; peptide concentration 0.01 μM) is on record?
Answer: 100%

Question: What about the viability at 0.1 µM ([1]; peptide concentration 0.1 μM) of the same compound?
Answer: 94.7%

Question: And the viability at 0.5 µM ([1]; peptide concentration 0.5 μM)?
Answer: 69.4%

Question: What about the viability at 1 µM ([1]; peptide concentration 1.0 μM) of the same compound?
Answer: 42.5%

Question: And the viability at 5 µM ([1]; peptide concentration 5.0 μM)?
Answer: 36.1%

Question: What about the viability ([1]; peptide concentration 10. μM) of the same compound?
Answer: 5.6%

Question: And the viability ([1]; peptide concentration 50. μM)?
Answer: 0%

Question: And the LD50 [2]?
Answer: 1.48 µM

Question: And the viability at 100 µM ([3]; 15 min.)?
Answer: 35%

Question: And the viability at 100 µM ([3]; 30 min.)?
Answer: 25%

Question: And the viability at 100 µM ([3]; 60 min.)?
Answer: 15%

From patent US6440935B1, “Inhibition of eucaryotic pathogens and neoplasms and stimulation of fibroblasts and lymphocytes with lytic peptides” (priority 1987, dated 2002)
